Results from patent US11708318B2, “Polymorphic forms of RAD1901-2HCL” (Radius Pharmaceuticals, Inc., priority 2017, dated 2023).
“Also recorded” adds a separate entry of the source. Blank lines part the entries; values can stand above or below the compound they belong to.

Legend:
[1] = Storage at elevated temperature/humidity, analysed by XRPD; assay type: physicochemical
[2] = biological target: T1, estrogen receptor (ER) (Homo sapiens, UniProt P03372); conditions: cited from earlier work
T1 sequence (P03372 1-595): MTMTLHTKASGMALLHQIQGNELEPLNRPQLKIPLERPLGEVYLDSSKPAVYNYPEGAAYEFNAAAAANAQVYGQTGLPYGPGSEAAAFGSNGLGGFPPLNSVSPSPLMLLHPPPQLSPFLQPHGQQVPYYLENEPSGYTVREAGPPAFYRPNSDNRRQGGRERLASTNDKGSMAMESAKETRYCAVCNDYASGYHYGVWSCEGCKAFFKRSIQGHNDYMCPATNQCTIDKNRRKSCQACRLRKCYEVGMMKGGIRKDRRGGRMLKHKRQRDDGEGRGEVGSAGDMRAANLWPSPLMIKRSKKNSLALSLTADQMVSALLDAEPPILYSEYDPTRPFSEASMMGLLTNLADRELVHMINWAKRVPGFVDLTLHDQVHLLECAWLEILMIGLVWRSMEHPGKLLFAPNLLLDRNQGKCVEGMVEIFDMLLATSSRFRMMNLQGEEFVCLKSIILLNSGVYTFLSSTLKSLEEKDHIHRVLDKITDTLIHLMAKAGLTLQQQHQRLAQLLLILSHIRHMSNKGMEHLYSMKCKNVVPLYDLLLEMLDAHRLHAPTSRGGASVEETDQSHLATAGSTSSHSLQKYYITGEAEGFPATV

[3] = Storage at elevated temperature/humidity, analysed by XRPD; assay type: physicochemical; conditions: 1 week
Protocol: Samples 1 and 2 were characterized by XRPD at various conditions. XRPD patterns were collected for the samples at ambient condition as the samples were provided; at variable temperature (VT-XRPD); at variable humidity (VH-XRPD); after the samples were exposed to 40° C./75% RH for 1 week and 25° C./97% RH for 1 week, respectively; and after a GVS measurement wherein the samples were exposed to 0-90% RH. Samples 1 and 2 were also characterized by ^1H NMR, TGA, DSC, KF, IC, GVS (exposed to 0-90% RH), PLM, SEM, and HPLC (Table 5).

[4] = Gravimetric Vapour Sorption (GVS), with XRPD of the recovered sample; assay type: physicochemical
Protocol: Sorption isotherms were obtained using a SMS DVS Intrinsic moisture sorption analyzer, controlled by DVS Intrinsic Control software v1.0.1.2 (or v 1.0.1.3). The sample temperature was maintained at 25° C. by the instrument controls. The humidity was controlled by mixing streams of dry and wet nitrogen, with a total flow rate of 200 ml/min. The relative humidity was measured by a calibrated Rotronic probe (dynamic range of 1.0-100% RH), located near the sample. The weight change, (mass relaxation) of the sample as a function of % RH was constantly monitored by the microbalance (accuracy ±0.005 mg).
A sample (e.g., 20 mg) was placed in a tared mesh stainless steel basket under ambient conditions. The sample was loaded and unloaded at 40% RH and 25° C. (typical room conditions). A moisture sorption isotherm was performed as outlined below (2 scans giving 1 complete cycle). Standard isotherms were performed at 25° C. at 10% RH intervals over a 0-90% RH range. Data analysis was carried out using Microsoft Excel using DVS Analysis Suite v6.2 (or 6.1 or 6.0).
In a cycle of 2 scans, the first scan was performed with adsorption of 40-90% RH, followed by a second scan with desorption of 90-0% RH and adsorption of 0-40% RH, with intervals of 10% RH, at 25° C. with stability dm/dt of 0.002% ° C./min. The sorption time was 6 hr time out.
The sample was recovered after completion of the isotherm and re-analyzed by XRPD. Custom moisture sorption methods were also performed at 25° C. at fixed % RH intervals over a 0-95% RH range, with the purpose to fully understand the sorption/desorption behavior of the compound under elevated conditions.
To further explore the humidity behavior of Sample 1 (Form 1) upon exposure to high RH (>90%), custom GVS experiments were designed and carried out. Initially, the sample was treated by holding at 90 and then 95% RH for ˜12 hours to see if hydrate formation could be observed (HighRH method of Steps 1 and 2 of Table 2, FIGS. 6C-6D).
To test the stability of the hydrated state, GVS method HighRH_Desorp_3 was designed with a desorption step and subsequent adsorption (see Table 2 with steps 1-4, FIGS. 6E-6F).
Finally, to ensure complete conversion to the anhydrous and hydrated forms, a GVS experiment was designed to increase both the length of the desorption step at 0% RH, and the adsorption step at 95% RH, respectively (Table 3). Based on the weight stabilization observed in the kinetic plots for Sample 1 in HighRH and HighRH_Desorp_3 methods discussed above (FIGS. 6D and 6F), a holding time of 800 mins at 0% RH and 1600 mins at 95% RH were chosen. A double cycle was also recorded for this experiment to observe whether the sample would return to Form 1 or form a mixed anhydrous/hydrated species (see Table 3, FIGS. 6G-6H).

[5] = Variable humidity XRPD (VH-XRPD); assay type: physicochemical
Protocol: Samples run under non-ambient conditions were prepared by gently packing into a cavity, cut into a silicon wafer to obtain a flat surface and mounted onto a humidity stage with an Ansyco controller and humidity sensor positioned directly next to the sample holder. The data were collected at 298.15 K with water temperature of 35.0° C., in an angular range of 3 to 31° 2θ, with a step size of 0.025° 2θ, a collection time of 2.0 sec/step, and a collection time at each % RH was 41 min 28 sec. X-Ray Powder Diffraction (XRPD) patterns were collected at variable humidity values from 0 to 95% RH, based upon the humidity behavior of each compound observed during GVS experiments (described herein). For each Variable Humidity X-Ray Powder Diffraction (VH-XRPD) experiment performed, the % RH values selected are provided alongside the relevant experimental result. Full tables of detailing the % RH value at each collection point and the associated delay time at each value are provided in Tables 10-12. To fully characterize the polymorphic behavior of Samples 1 and 2 at variable humidity, and to collect reference XRPD patterns for the ‘pure’ anhydrous Form 1 and Form 2 material, and ‘pure’ hydrated Form 3 material, Variable Humidity (VH) XRPD experiments were conducted on Samples 1 and 2. Initially, VH-XRPD experiments were conducted using Sample 1, and XRPD diffractograms were collected at selected humidity values, in line with those collected during GVS experiments (see FIGS. 6E-6F). XRPD diffractograms were collected initially at ambient RH, then collected over 24 hours at ˜95% RH and finally collected during desorption steps to 0% RH and over 10 hours at 0% RH (see FIG. 4C). […]

XRPD post storage at 25° C./97% RH (10 days) ([1]; 25° C./97% RH): Consistent with Form 3
XRPD post storage at 40° C./75% RH (10 days) ([1]; 40° C./75% RH): Consistent with Form 3
SMILES: CCNCCc1ccc(CN(CC)c2cc(OC)ccc2[C@@H]2CCc3cc(O)ccc3C2)cc1.Cl.Cl [Lyophilization in water]

SMILES: CCNCCc1ccc(CN(CC)c2cc(OC)ccc2[C@@H]2CCc3cc(O)ccc3C2)cc1 [RAD1901]
Selectivity of binding to the estrogen receptor (ER) [2]: good selectivity

XRPD after storage at 25° C./97% RH for 1 week ([3]; 25° C./97% RH): Form 3 (FIGS. 5B and
XRPD after storage at 40° C./75% RH for 1 week ([3]; 40° C./75% RH): Form 3 (FIG. 5B)
Hygroscopicity (GVS) ([4]; 0-90% RH): hygroscopic
VH-XRPD at 0% RH ([5]; 0% RH): 5E). Form 2 at 0% RH
SMILES: CCNCCc1ccc(CN(CC)c2cc(OC)ccc2[C@@H]2CCc3cc(O)ccc3C2)cc1.Cl.Cl [Sample 2]
XRPD post GVS (uptake 0-90% RH) ([4]; after exposure to 0-90% RH): mixture of Form 2 and Form 3; also recorded: Mixture of form 2 and 3
VH-XRPD at high RH (>90%) ([5]; >90% RH (92-93% RH recorded)): conversion toward the hydrated state; also recorded: Conversion to Form 3
